According to patent publication US20220033784A1 (priority 2020, published 2022):
Positions count from the first letter of the chain named. Names and notes keep the numbering of the source.

Experiments:
[1] = target: T1, mouse intermediate-affinity IL-2R (IL-2Rβ + IL-2Rγ) on murine splenocytes (CD8+ T cells and NK cells) (mouse) (UniProt P16297)
T1 sequence 1: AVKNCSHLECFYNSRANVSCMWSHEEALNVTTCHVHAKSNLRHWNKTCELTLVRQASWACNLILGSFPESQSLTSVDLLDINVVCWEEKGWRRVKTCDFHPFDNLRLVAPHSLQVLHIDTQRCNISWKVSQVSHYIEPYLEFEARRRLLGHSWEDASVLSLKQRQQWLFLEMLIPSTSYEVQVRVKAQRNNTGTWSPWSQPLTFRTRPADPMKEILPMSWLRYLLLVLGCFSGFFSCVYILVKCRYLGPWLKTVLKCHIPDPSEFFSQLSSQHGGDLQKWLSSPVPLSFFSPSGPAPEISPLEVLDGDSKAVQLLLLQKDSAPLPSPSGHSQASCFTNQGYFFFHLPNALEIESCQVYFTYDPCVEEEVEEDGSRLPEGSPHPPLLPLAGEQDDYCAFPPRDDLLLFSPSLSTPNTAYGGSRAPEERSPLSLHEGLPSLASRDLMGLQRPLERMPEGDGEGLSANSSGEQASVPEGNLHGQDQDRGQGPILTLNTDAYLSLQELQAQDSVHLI
T1 sequence 2: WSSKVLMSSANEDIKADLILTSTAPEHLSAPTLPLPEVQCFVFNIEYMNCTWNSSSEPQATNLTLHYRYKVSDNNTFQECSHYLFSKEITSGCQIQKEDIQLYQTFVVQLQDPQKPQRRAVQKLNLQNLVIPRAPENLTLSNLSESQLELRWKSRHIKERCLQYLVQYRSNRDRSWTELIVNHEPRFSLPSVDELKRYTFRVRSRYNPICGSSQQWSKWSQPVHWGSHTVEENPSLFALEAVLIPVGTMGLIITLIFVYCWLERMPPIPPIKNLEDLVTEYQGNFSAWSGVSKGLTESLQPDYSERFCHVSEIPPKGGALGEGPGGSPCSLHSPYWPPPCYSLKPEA

NK cells [2] = test: pSTAT5 flow cytometry in hPBMCs: NK cells; format: cell-based, human
Experimental: (§1) In this experiment, the ability of the IL-2 variants to activate CD8 T cells, NK cells, and Treg cells was measured by monitoring relative changes in pSTAT5 in response to treatment of the cells with the IL-2 variants. The IL-2 variants tested in this experiment were each fused to a human IgG Fc domain as described in Example 15. […]; Blood from healthy volunteers was taken and hPBMCs were isolated using a ficoll-paque (GE Healthcare) gradient, washed with PBS to remove platelets, and cleared of red blood cells using ACK lysis buffer (Gibco). Cells were then plated at 1*10e6 cells/well in 90 uL serum-free RPMI 1640 media (Gibco) and allowed to rest for 2-4 hours at 37° C. After resting, cells were treated the IL-2 molecules listed above (10 uL), at the indicated concentrations for 20 minutes at 37° C., and 25 uL 20% PFA was immediately added with gentle pipetting. Cells were then pelleted by centrifugation and aspirated (400 RCF, 7 minutes).
(§2) Phosflow Perm Buffer III (BD Biosciences) was added (200 uL), and the cells were mixed gently by pipetting up and down once to prevent clumping. Cells were then washed twice with 200 uL FACS buffer followed by pelleting by centrifugation (400 RCF, 7 minutes). Cells were in resuspended in 200 uL FACS buffer and incubated with the antibodies in Table D and Table E per standard procedure then suspended in 200 uL FACS buffer for FACS analysis. Data was analyzed using FlowJo v10 software.

Treg cells [3] = test: In vivo expansion of Treg cells (spleen immunophenotyping); design: species or system mice; settings: 0.5, 1, or 2 mg/kg daily for 4 days SC; spleens day 3
Experimental: (§3) Mice were randomized into groups to receive one of the molecules listed above or PBS control. The treatment groups were as follows: PBS; Fc-IL2; Fc-IL2v; […]; Immunophenotyping was conducted on day 3 after the first treatment (day 0) by collecting spleens from each group.

B16F10 cells = test: Tolerability and tumor growth inhibition in B16F10-bearing mice (Example 21); format: in vivo, mouse (C57/BL6)
Source text: On day 0 of the experiment, female C57/BL6 mice were subcutaneously implanted in the upper thigh with approximately 500,000 B16F10 cells, which had been freshly thawed from a single, low-passage vial (of 1*10^7 cells) and cultured for the minimum time required to establish sufficient cells for implantation.
On day 5 of the experiment, mice were randomized into groups to receive one of the molecules listed above or control. […] Tumor volumes, body weight, and animal survival were tracked throughout the course of the experiment. Animals were sacrificed once tumors reached approximately 2000 mm^3 or 2 weeks post treatment.

[4] = system: HH cells (IL-2 CD122/CD132 (β/γ) receptor complex); test: pSTAT5 ELISA in HH cells; format: cell-based
Experimental: (§4) The ability of the IL-2 variants to activate HH cells and iTregs was measured by monitoring relative changes in phosphorylated STAT5 (pSTAT5) in response to treatment of the cells with the IL-2 variants. pSTAT5 is known to be a downstream consequence of IL-2 signaling. HH T cells (ATCC CRL-2105) are a line of T cells that lack the alpha chain of the IL-2 receptor complex, but that contain the beta and gamma chains of the IL-2 receptor complex. iTreg cells were prepared from Fresh Leuko Paks obtained from […] Technologies (CAT #70500.1, Donor #D001003551).
(§5) For IL-2 activation, the HH cells and iTreg cells were plated at 2*10e6 cells/well in 50 ul serum-free RPMI 1640 media (Gibco), and allowed to rest at 37° C. After resting, cells were treated the IL-2 molecules listed above, and cells were then pelleted by centrifugation.
(§6) Following treatment with the IL-2 molecules, cell induction status was evaluated by the InstantOne ELISA pSTAT5 detection kit (Invitrogen).

CD8 T cells [5] = test: In vivo expansion of CD8 T cells (spleen immunophenotyping); design: species or system mice; settings: 0.5, 1, or 2 mg/kg daily for 4 days SC; spleens day 3
Experimental: as §3

[6] = system: iTreg cells (IL-2 CD25/CD122/CD132 (α/β/γ) receptor complex); test: pSTAT5 ELISA in iTreg cells; format: cell-based; settings: pSTAT5 level 50% of maximum, InstantOne ELISA; read-out: EC50 iTreg cell
Experimental: as §4, §5, §6

Treg cells [7] = test: pSTAT5 flow cytometry in hPBMCs: Treg cells; format: cell-based, human; settings: pSTAT5 MFI in hPBMCs, 20 minutes at 37° C.; read-out: EC50 Treg cell
Experimental: as §1, §2

CD8 T cells [8] = test: pSTAT5 flow cytometry in hPBMCs: CD8 T cells; format: cell-based, human
Experimental: as §1, §2

NK cells [9] = test: In vivo expansion of NK cells (spleen immunophenotyping); design: species or system mice; settings: 0.5, 1, or 2 mg/kg daily for 4 days SC; spleens day 3
Experimental: as §3

[10] = target: T2, human high-affinity IL-2 receptor complex, IL-2 CD25/CD122/CD132 (α/β/γ), on cells (human, UniProt P01589 22-272; P14784 27-551; P31785 23-369); test: cell-based or functional assay
T2 sequence (looked up) 1: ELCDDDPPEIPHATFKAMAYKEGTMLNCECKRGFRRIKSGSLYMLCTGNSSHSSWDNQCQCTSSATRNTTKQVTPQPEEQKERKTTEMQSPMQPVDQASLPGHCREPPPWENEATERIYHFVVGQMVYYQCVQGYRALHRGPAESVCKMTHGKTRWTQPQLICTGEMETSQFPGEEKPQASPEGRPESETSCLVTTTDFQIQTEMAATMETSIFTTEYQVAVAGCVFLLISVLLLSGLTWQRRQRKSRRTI
T2 sequence (looked up) 2: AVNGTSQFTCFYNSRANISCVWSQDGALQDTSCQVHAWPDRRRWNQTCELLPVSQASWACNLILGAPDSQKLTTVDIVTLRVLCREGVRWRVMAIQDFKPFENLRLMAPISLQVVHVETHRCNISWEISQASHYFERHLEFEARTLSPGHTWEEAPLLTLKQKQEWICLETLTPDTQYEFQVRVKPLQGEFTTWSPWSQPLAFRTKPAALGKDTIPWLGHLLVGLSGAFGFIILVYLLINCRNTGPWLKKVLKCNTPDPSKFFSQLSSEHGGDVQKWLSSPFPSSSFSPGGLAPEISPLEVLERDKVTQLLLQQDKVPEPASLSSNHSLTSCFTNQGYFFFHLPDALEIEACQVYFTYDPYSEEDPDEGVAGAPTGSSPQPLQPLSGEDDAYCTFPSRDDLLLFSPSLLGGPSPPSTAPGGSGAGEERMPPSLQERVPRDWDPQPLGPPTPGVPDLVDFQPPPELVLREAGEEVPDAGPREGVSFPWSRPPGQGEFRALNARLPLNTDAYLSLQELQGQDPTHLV
T2 sequence (looked up) 3: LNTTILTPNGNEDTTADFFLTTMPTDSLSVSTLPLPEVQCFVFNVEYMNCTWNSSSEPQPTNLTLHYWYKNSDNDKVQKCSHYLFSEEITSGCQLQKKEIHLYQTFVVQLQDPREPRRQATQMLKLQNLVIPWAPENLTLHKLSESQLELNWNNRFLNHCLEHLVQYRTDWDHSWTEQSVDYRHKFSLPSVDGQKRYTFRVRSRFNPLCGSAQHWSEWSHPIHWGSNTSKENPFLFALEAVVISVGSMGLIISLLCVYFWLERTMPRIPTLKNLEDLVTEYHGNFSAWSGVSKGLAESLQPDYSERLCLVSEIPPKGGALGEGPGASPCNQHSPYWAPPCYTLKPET

[11] = target: T3, human intermediate-affinity IL-2 receptor complex, IL-2 CD122/CD132 (β/γ), on cells (human, UniProt P14784 27-551; P31785 23-369); test: cell-based or functional assay
T3 sequence (looked up) 1: T2 sequence (looked up) 2
T3 sequence (looked up) 2: T2 sequence (looked up) 3

[12] = system: Treg cells (CD3+CD4+CD25+ Foxp3+); format: cell-based, mouse (C57BL/6); settings: protein from supernatants of virus-infected HeLa cells, 15 minutes incubation

human IL-2 glycovariant hIL-2gv1 (R38N, L40T, K43N, Y45T), secreted by virus-infected HeLa cells (from UniProt P60568 21-153) (ligand)
EC50 (read off the curve), pSTAT5 MFI, murine splenocyte NK cells [1]: 20 ng/mL

Fc-IL2-K43N:Y45T
Selectivity NK/Treg (NK cells [2]; larger numbers = greater selectivity for NK cells over Treg cells): 3.8 | EC50 (NK cells [2]; pSTAT5 MFI in hPBMCs, 20 minutes at 37° C., read-out: EC50 NK cell): 6.37 nM | proliferation of Treg cells in vivo (Treg cells [3]): modest increase in Treg proliferation | surviving mice (B16F10 cells; 1 mg/kg SC on days 5, 6, 7, 8, groups of 15, day 12 post first treatment): 7/15 | tolerability in mice compared with Fc-IL2 and Fc-IL2v (B16F10 cells; 1 mg/kg SC on days 5-8): better tolerated | Selectivity HH/iTreg ([4]; higher value = greater selectivity for HH cells): 3.86 × 10^−3 | EC50 ([4]; pSTAT5 level 50% of maximum, InstantOne ELISA, read-out: EC50 HH T cell): 166 nM | expansion of CD8 T cells in vivo (CD8 T cells [5]): promoted the expansion | EC50 [6]: 0.64 nM | EC50 (Treg cells [7]): 24.2 nM | Selectivity CD8/Treg (CD8 T cells [8]; larger numbers = greater selectivity for CD8 T cells over Treg cells): 0.42 | EC50 (CD8 T cells [8]; pSTAT5 MFI in hPBMCs, 20 minutes at 37° C., read-out: EC50 CD8 T cell): 57.6 nM | expansion of NK cells in vivo (NK cells [9]): promoted the expansion

human IL-2 glycovariant 2 hIL-2gv2 (K43N, Y45T, L72N, Q74T), secreted by virus-infected HeLa cells (from UniProt P60568 21-153) (ligand)
EC50 (read off the curve), pSTAT5 MFI, murine splenocyte NK cells [1]: 20 ng/mL

B1: Fc-IL2-T41N:K43T-E62N:K64T (Fc fusion)
chain: GGGGSGGGGSAPTSSSTKKTQLQLEHLLLDLQMILNGINNYKNPKLTRMLNFTFYMPKKATELKHLQCLEENLTPLEEVLNLAQSKNFHLRPRDLISNINVIVLELKGSETTFMCEYADETATIVEFLNRWITFCQSIISTLT
EC50 (read off the curve), pSTAT5 MFI in Treg cells of hPBMC [10]: ~20 nM | EC50 (read off the curve), pSTAT5 MFI in NK cells of hPBMC [11]: ~6 nM

B2: Fc-IL2-T41N:K43T-L72N:Q74T (Fc fusion)
chain: B1 chain with N72E, T74K, L82N, Q84T
EC50 (read off the curve), pSTAT5 MFI in Treg cells of hPBMC [10]: ~20 nM | EC50 (read off the curve), pSTAT5 MFI in NK cells of hPBMC [11]: ~6 nM

B3: IL-2gv1 (protein)
chain: APTSSSTKKTQLQLEHLLLDLQMILNGINNYKNPKLTNMTTFNFTMPKKATELKHLQCLEEELKPLEEVLNLAQSKNFHLRPRDLISNINVIVLELKGSETTFMCEYADETATIVEFLNRWITFCQSIISTLT
activity on Treg cells (concentration potency at inducing pSTAT5) compared to wild-type IL-2 [12]: reduced activity on Treg cells

B4: IL-2gv2 (protein)
chain: B3 chain with N38R, T40L, L72N, Q74T
activity on Treg cells (concentration potency at inducing pSTAT5) compared to wild-type IL-2 [12]: reduced activity on Treg cells
